Experimental data taken from patent US20120302530A1, “23-HYDROXY-BETULINIC ACID DERIVATIVES, PREPARATION METHODS AND USES THEREOF” (priority 2009, published 2012).

Legend:
normal person PBMC = assay: Toxicity to PBMC cells (MTT, day 7); format: cell-based, human; details: Homo sapiens, 168 h, day 7, MTT
Procedure: (2) Toxicity of compounds zhangnan-5, zhangnan-7 and zhangnan-8 to C8166 and PBMC cells:
C8166 (human T cell line) and PBM (using lymphocyte isolation liquid to separate from normal human peripheral blood, and adhered mononuclear cell separated from PBMC) cells in exponential phase are taken. The cells are resuspended after centrifugal (1000 r•min-1, 10 min), and the concentrations are adjusted to 4×10^5/ml and 2×10^6/ml. The test samples are double diluted on the 96-hole cell culture plate. In total 6 gradients are set, each having 3 duplicate holes. In addition, positive control group and cell control group are set. Upon adding cell suspended liquid, the test samples are placed in incubator of 370C and 5% CO2 for incubation. On the seventh (7th) day, MTT method is used to determine toxicity of the samples to cells.
Inhibition ratio of cell growth (%)=(1−experimental hole OD value/control hole (OD value)×100%

HIV-1IIIB = assay: Inhibition of HIV-1IIIB induced syncytium formation in C8166 cells; format: cell-based; details: for therapeutic index TI: HIV-1IIIB syncytium, C8166, TI=IC50/EC50; for EC50: Human immunodeficiency virus 1, HIV-1IIIB, C8166 cells, third day after infection
Source text: (3) The inhibition effects of compounds zhangnan-5, zhangnan-7 and zhangnan-8 to virus HIV-1IIIB inducing C8166 cell to form syncytium: (see JIANG, Haiou; WANG, Xu; L I, Rurun; CHEN, Dagang; B I, Kunlong, Experimental Research on Recipe Sanhuangsan Capsule for Resisting AIDS virus in Vitro, [J]. Shandong Journal of Traditional Chinese medicine, 2005.8 (1):21-26).
The test sample is double diluted with culture medium on the 96-hole flat culture plate. There are 8 dilutions in total. Each hole 100 ul has 2 duplicate holes. In addition, there are positive control group, cell control group and virus control group. 80 ul C8166 cell of 4×10^5/ml is added into each hole, and then 20 ul virus HIV-1IIIB supernatant is added into each hole. The final volume of each hole is 200 ul. The sample is placed in incubator of 370C, 5% CO2 for cultivation. […] Under the inverted microscope, the number of syncytium formed by virus HIV-1IIIB inducing C8166 cell is counted. […] The following formula is used to calculate the inhibition ratio of the sample to syncytium.
Inhibition ratio formed by syncytium (%)=(1−experimental hole syncytium number/control hole syncytium number)×100%

[1] = system: normal human epithelium of mammary gland (MCF-10a); assay: MTT cytotoxicity, normal cell strain; format: cell-based; details: for EC50: Homo sapiens, Normal Mammary Gland Epithelial Cell, 72 hours, MTT; for sensitivity of normal cells to the compounds: concentration up to 30 μm, cells can still grow well
HIV-1Ada-M = assay: ELISA of HIV-1Ada-M p24 antigen expression in PBMC; format: cell-based; details: for therapeutic index TI: HIV-1Ada-M p24, PBMC, TI=IC50/EC50; for EC50: Human immunodeficiency virus 1, HIV-1Ada-M, PBMC, 7th day, ELISA, read-out: EC50, inhibition of p24 antigen expression
Source text: (4) Quantitative Enzyme Linked Immunoadsorbent method (EIISA) detecting inhibiting effects of compounds to virus HIV-1Ada-Mp24 expression: (see JIANG, Haiou; WANG, Xu; L I, Rurun; CHEN, Dagang; B I, Kunlong, Experimental Research on Recipe Sanhuangsan Capsule Resisting AIDS Virus in Vitro, [J], Shandong Journal of Traditional Chinese medicine, 2005.8 (1):21-26).
Multi-heads sample injector is used to conduct triple dilution to the sample on the 96-hole culture plate. There are 6 dilutions, in which each dilution has 3 duplicate holes, and each hole is 100 ul. […] On the 96-hole flat culture plate, each hole is added with 25 ul virus stock solution containing 1000˜5000 pg/well P24 antigen, which is sufficiently blended. 75 ul mononuclear cell PBMC suspension liquid is added (3×10^5 cell numbers/hole). Upon placing in incubator of 37° C., 5% CO2 to the third day, 100 ul of culture medium is added to each hole. On the 7th day, cell culture supernatant is collected for p24 antigen test. According to p24 kit description, ELISA method is used to measure the virus HIV-1 p24 antigen concentration of each sample cell culture hole supernatant. The following formula is used to calculate the inhibition ratio of sample to virus.
Inhibition ratio of sample to virus p24 antigen (%)=(1−experimental hole OD value/cell+virus control hole OD value)×100%. Reed and Mueneh method is used to calculate EC50 of the test sample, and to further calculate the therapeutic index (TI) (TI=IC50/EC50). […] The positive control SCH-C, 23-hydroxyl-betulinic acid, compounds zhangnan-5, zhangnan-7 and zhangnan-8 all reach an inhibition ratio above 50% within the tested range. The positive control SCH-C inhibits HIV-1Ada-M p24 antigen expression. […] In addition, the inhibition effect to HIV-1Ada-M has significant dose-effect relationship with its concentration.

human tumor cell strains = assay: MTT cytotoxicity, human tumor cell strains (summary statement); format: cell-based; details: some (unnamed) human tumor cell strains, 72 hours, read-out: EC50 of some tumor cells
Source text: We use human tumor cell lines to conduct cytotoxicity analysis. Thirty-one (31) kinds of human tumor cell strains are cultivated in the normal culture medium containing various compounds of zhangnan-5, zhangnan-7 and zhangnan-8. The human tumor lines are bought from ATCC and NCI, and is cultivated with DMEM culture solution containing 10% FBS in 370C couveuse containing 5% CO2. The merged cells are digested by trypsinase, and are counted after washed by the culture solution. 3000˜6000 cells are added into each hole of the 96-hole culture plate, and are hatched for 16 hours or 24 hours. Then, compounds zhangnan-5, zhangnan-7 and zhangnan-8 with different concentrations are added into the holes. Upon further cultivated for another 72 hours, MTT tests are conducted to cells in group treated with drugs and the control group cells, to determine the survival condition of the cells.

[2] = Pharmacokinetics of zhangnan-5 in mice; format: in vivo; details: both sexes, BlebC, mouse, oral, 100 mg/kg single dose, plasma, average +/− standard deviation
Procedure: (5) Pharmacokinetics research of the compound zhangnan-5 in mice body: (see Singh S S, Shah H, Gupta S, Jain M, Sharma K, Thakkar P, Shah R. Liquid chromatography—electrospray ionisation mass spectrometry method for the determination of escitalopram in human plasma and its application in bioequivalence study. J Chromatogr B Analyt Technol Biomed Life Sci. 2004 Nov. 25; 811 (2):209-15).
Four 8-week old BlebC mice (two male and two female) are used, feeding with the compound zhangnan-5 of 100 mg/kg for single dose. At 0.5, 1, 3, 6, 12, 24, 48, and 72 hours upon mouth feeding the drug, blood is collected via vena ophthalmica and blood plasma is made, to determine the plasma concentration of the given compound zhangnan-5.

With `CC(C)C1CCC2(C(=O)O)CCC3(C)C(CCC4C5(C)CCC(O)C(C)(CO)C5CCC43C)C12` (stereo not shown) [zhangnan-8, 23-hydroxyl-dihydrobetulinic acid] the IC50 (normal person PBMC) was 11.6 ± 3.5 µM, the “therapeutic index TI” value (HIV-1IIIB) was 9.4 and the EC50 (HIV-1IIIB) was 1100 ± 90 nM. For the same molecule, the EC50 [1] was over 30 µM, the “sensitivity of normal cells to the compounds” value (from here on “sensitivity of normal cells”) [1] was “not sensitive” and the “therapeutic index TI” value (HIV-1Ada-M) was 7.3. The EC50 (HIV-1Ada-M) was 1600 ± 230 nM.

With `C=C(C)C1CCC2(C(=O)O)CCC3(C)C(CCC4C5(C)CCC(=O)C(C)(CO)C5CCC43C)C12` (stereo not shown) [zhangnan-5] the EC50 (human tumor cell strains) was under 100 nM, the IC50 (normal person PBMC) was 2.4 ± 0.38 µM and the Cmax [2] was 65 µM. For the same molecule, the Tmax [2] was 1.42 h, the half-life ([2]; read-out: T½ (converted)) was 690 min and the “therapeutic index TI” value (HIV-1IIIB) was 4.6. For the same molecule, the EC50 (HIV-1IIIB) was 500 ± 70 nM, the EC50 [1] was over 30 µM and the “sensitivity of normal cells” value [1] was “not sensitive”. For the same molecule, the “therapeutic index TI” value (HIV-1Ada-M) was 3.4 and the EC50 (HIV-1Ada-M) was 700 ± 190 nM.

In the case of `CC(C)C1CCC2(C(=O)O)CCC3(C)C(CCC4C5(C)CCC(=O)C(C)(CO)C5CCC43C)C12` (stereo not shown) [zhangnan-7], the IC50 (normal person PBMC) is reported as 25.8 ± 4.9 µM, the “therapeutic index TI” value (HIV-1IIIB) is reported as 13158 and the EC50 (HIV-1IIIB) is reported as 1.9 ± 0.2 nM. For the same molecule, the EC50 [1] was over 30 µM, the “sensitivity of normal cells” value [1] was “not sensitive” and the “therapeutic index TI” value (HIV-1Ada-M) was 9923. The EC50 (HIV-1Ada-M) was 2.6 ± 0.5 nM.
